From patent US12065443B2, “Compounds and pharmaceutical compositions thereof for the treatment of diseases” (priority 2017, dated 2024)

Assays:
Test in all cases: biochemical
SIK1 = target: T1, SIK1 (Homo sapiens, UniProt P57059); settings: 33P radioactive SIK kinase assay, AMARA peptide, 10 μM ATP; read-out: SIK1 IC50
T1 construct: purchased Carna Biosciences 02-131
Procedure: (§1) The principle of the ^33P radioactive kinase assay consists in measuring the incorporated ^33P into the substrate AMARA peptide when phosphorylated by SIK1, SIK2 or SIK3 using [^33P]-g-ATP, which correlates with kinase activity.
(§2) 1% DMSO and 10 μM staurosporine final concentrations are used as negative and positive controls.
(§3) 11 μL of enzyme-substrate mixture is added on the assay plates. The reactions are started by adding 9 μL ATP mixture, consisting of non-labeled and ^33P-labeled ATP, on the assay plates.
(§4) The reactions are stopped by adding 25 μL phosphoric acid (150 mM) to the reactions.
(§5) After harvesting the kinase reactions, the filter plates are washed 6 times with phosphoric acid (75 mM). […] The top of the plates are sealed with TopSeal-A. Read-out is performed with a TopCount instrument (PerkinElmer Inc.).

SIK2 = target: T2, SIK2 (Homo sapiens, UniProt Q9H0K1); settings: 33P radioactive SIK kinase assay, AMARA peptide, 10 μM ATP
T2 construct: purchased ThermoFisher Scientific PV4792
T2 sequence (Q9H0K1 whole entry): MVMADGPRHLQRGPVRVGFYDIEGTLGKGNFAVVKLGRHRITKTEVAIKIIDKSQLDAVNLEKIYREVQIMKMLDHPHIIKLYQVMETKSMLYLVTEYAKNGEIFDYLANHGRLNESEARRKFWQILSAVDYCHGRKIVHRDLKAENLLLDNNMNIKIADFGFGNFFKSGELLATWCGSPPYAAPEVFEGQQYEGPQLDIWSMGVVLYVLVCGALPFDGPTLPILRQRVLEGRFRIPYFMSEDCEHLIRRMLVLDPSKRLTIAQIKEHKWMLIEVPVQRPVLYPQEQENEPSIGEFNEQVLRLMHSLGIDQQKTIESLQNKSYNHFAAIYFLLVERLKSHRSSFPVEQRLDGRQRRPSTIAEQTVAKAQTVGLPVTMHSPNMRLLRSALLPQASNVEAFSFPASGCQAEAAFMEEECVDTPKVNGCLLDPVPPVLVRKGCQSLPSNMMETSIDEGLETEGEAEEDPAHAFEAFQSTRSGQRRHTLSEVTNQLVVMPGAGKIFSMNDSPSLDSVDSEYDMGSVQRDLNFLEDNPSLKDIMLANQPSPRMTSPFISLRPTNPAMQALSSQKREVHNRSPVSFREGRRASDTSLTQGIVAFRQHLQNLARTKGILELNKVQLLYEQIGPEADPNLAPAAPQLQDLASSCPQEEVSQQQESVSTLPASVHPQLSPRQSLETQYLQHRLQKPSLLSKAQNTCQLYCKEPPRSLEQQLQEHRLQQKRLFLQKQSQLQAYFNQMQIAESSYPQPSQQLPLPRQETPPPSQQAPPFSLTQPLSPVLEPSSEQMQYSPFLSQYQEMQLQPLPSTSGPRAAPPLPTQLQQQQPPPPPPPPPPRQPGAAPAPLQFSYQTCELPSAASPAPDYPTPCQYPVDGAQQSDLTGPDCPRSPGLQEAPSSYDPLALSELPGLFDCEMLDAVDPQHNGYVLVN
Procedure: as §1, §2, §3, §4, §5

SIK3 = target: T3, SIK3 (Homo sapiens, UniProt Q9Y2K2)
T3 construct: purchased SignalChem S12-11G-100
T3 sequence (Q9Y2K2 whole entry): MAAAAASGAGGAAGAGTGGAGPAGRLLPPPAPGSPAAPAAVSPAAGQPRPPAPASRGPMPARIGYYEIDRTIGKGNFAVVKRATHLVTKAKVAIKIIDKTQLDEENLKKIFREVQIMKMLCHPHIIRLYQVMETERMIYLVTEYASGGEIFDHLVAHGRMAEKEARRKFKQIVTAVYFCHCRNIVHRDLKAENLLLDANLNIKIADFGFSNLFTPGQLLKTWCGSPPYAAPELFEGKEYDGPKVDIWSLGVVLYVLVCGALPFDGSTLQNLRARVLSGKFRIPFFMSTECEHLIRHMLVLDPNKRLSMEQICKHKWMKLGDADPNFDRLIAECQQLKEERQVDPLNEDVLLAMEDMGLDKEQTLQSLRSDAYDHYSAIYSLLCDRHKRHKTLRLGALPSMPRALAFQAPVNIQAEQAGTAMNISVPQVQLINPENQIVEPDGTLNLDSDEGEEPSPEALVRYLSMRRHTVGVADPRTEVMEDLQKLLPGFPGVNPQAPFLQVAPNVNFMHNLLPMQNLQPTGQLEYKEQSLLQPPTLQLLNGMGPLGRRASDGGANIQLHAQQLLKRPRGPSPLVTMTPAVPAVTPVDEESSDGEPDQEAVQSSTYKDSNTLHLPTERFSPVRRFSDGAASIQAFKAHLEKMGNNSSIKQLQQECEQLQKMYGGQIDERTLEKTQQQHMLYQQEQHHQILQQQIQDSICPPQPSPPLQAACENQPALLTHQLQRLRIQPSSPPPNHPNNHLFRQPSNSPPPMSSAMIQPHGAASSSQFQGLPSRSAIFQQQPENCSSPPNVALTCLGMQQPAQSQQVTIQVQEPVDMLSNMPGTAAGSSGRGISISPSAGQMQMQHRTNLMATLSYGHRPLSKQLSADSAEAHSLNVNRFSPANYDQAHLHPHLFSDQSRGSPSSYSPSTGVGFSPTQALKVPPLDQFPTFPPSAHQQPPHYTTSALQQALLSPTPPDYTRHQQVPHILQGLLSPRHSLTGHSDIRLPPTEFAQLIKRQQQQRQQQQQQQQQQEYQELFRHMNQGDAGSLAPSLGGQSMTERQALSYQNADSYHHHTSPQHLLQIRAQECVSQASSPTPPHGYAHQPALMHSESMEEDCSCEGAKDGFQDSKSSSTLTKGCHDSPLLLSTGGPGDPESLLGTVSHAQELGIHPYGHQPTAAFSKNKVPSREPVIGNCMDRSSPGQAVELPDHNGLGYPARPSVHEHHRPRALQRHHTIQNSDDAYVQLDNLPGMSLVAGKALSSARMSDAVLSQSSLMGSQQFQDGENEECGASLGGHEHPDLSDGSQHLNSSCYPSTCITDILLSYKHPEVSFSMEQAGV
Procedure: as §1, §2, §3, §4, §5

T1 sequence (P57059 whole entry): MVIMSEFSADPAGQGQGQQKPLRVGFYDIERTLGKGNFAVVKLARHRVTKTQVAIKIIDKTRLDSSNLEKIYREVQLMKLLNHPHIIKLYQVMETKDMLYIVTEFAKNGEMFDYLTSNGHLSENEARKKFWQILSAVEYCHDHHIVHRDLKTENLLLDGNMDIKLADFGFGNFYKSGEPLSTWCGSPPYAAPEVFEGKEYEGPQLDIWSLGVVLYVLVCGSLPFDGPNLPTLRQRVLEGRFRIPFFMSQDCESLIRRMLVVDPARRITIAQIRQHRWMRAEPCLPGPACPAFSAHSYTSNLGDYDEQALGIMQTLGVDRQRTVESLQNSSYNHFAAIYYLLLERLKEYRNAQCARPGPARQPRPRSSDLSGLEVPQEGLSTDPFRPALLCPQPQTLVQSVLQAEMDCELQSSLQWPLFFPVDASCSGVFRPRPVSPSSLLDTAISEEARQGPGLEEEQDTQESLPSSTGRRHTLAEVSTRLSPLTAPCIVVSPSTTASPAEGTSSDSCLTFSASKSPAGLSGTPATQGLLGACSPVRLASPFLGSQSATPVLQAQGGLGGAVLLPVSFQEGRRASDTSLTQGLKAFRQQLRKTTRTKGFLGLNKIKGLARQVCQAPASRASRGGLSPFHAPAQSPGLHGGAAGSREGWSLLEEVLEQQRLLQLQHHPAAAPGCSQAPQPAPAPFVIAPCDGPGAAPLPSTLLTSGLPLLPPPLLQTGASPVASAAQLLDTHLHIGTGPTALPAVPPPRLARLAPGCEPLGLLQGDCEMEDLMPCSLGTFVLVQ

SMILES	IC50 (SIK1)	IC50 (SIK2)	IC50 (SIK3)
COc1cc(-n2cnc3cc(-c4cnn(C)c4)ccc32)cc(OC)c1C(=O)Nc1cn(C)cn1 [compound 82, 2,6-dimethoxy-N-(1-methylimidazol-4-yl)-4-[5-(1-methylpyrazol-4-yl)benzimidazol-1-yl]benzamide]	100 to 500 nM	100 to 500 nM	100 to 500 nM
COc1cc(-n2cnc3cc(-c4cnn(C)c4)ccc32)cc(OC)c1C(=O)Nc1cnn(C)c1 [compound 83, 2,6-dimethoxy-N-(1-methylpyrazol-4-yl)-4-[5-(1-methylpyrazol-4-yl)benzimidazol-1-yl]benzamide]	100 to 500 nM	100 to 500 nM	100 to 500 nM
COc1cc(-n2cnc3cc(-c4cnn(C)c4)ccc32)cc(OC)c1C(=O)NC(C)C#N (stereo not drawn) [compound 87, N-(1-cyanoethyl)-2,6-dimethoxy-4-[5-(1-methylpyrazol-4-yl)benzimidazol-1-yl]benzamide]	10 to 100 nM	10 to 100 nM	10 to 100 nM
COc1cc(-n2cnc3cc(-c4ccn(C)n4)ccc32)cc(OC)c1C(=O)NCC(F)(F)F [compound 89, 2,6-dimethoxy-4-[5-(1-methylpyrazol-3-yl)benzimidazol-1-yl]-N-(2,2,2-trifluoroethyl)benzamide]	10 to 100 nM	10 to 100 nM	10 to 100 nM
COc1cc(-n2cnc3cc(-c4cnn(C)c4)ccc32)cc(OC)c1C(=O)NC1CCCC1(F)F (stereo not drawn) [compound 90, N-(2,2-difluorocyclopentyl)-2,6-dimethoxy-4-[5-(1-methylpyrazol-4-yl)benzimidazol-1-yl]benzamide]	10 to 100 nM	10 to 100 nM	10 to 100 nM
COc1cc(-n2cnc3cc(-c4cnn(C)c4)ccc32)cc(OC)c1C(=O)NC(C)C(F)F (stereo not drawn) [compound 91, N-(2,2-difluoro-1-methyl-ethyl)-2,6-dimethoxy-4-[5-(1-methylpyrazol-4-yl)benzimidazol-1-yl]benzamide]	10 to 100 nM	10 to 100 nM	10 to 100 nM
COc1cc(-n2cnc3cc(-c4cnn(C)c4)ccc32)cc(OC)c1C(=O)NC1COC1 [compound 92, 2,6-dimethoxy-4-[5-(1-methylpyrazol-4-yl)benzimidazol-1-yl]-N-(oxetan-3-yl)benzamide]	10 to 100 nM	10 to 100 nM	10 to 100 nM
COc1cc(-n2cnc3cc(-c4ccnnc4)ccc32)cc(OC)c1C(=O)NCC(F)(F)F [compound 93, 2,6-dimethoxy-4-(5-pyridazin-4-ylbenzimidazol-1-yl)-N-(2,2,2-trifluoroethyl)benzamide]	100 to 500 nM	10 to 100 nM	10 to 100 nM
COc1cc(-n2cnc3cc(-c4cncnc4)ccc32)cc(OC)c1C(=O)NCC(F)(F)F [compound 104, 2,6-dimethoxy-4-(5-pyrimidin-5-ylbenzimidazol-1-yl)-N-(2,2,2-trifluoroethyl)benzamide]	> 500 nM	100 to 500 nM	100 to 500 nM
COc1ncc(-c2ccc3c(c2)ncn3-c2cc(OC)c(C(=O)NCC(F)(F)F)c(OC)c2)cn1 [compound 105, 2,6-dimethoxy-4-[5-(2-methoxypyrimidin-5-yl)benzimidazol-1-yl]-N-(2,2,2-trifluoroethyl)benzamide]	> 500 nM	> 500 nM	100 to 500 nM
COc1cc(-c2ccc3c(c2)ncn3-c2cc(OC)c(C(=O)NCC(F)(F)F)c(OC)c2)ccn1 [compound 106, 2,6-dimethoxy-4-[5-(2-methoxy-4-pyridyl)benzimidazol-1-yl]-N-(2,2,2-trifluoroethyl)benzamide]	100 to 500 nM	10 to 100 nM	10 to 100 nM
COc1cc(-n2cnc3cc(-c4conc4C)ccc32)cc(OC)c1C(=O)NCC(F)(F)F [compound 108, 2,6-dimethoxy-4-[5-(3-methylisoxazol-4-yl)benzimidazol-1-yl]-N-(2,2,2-trifluoroethyl)benzamide]	100 to 500 nM	100 to 500 nM	100 to 500 nM
COc1cc(-n2cnc3cc(-c4cnn(CC5CCCO5)c4)ccc32)cc(OC)c1C(=O)NCC(F)(F)F (stereo not drawn) [compound 111, 2,6-dimethoxy-4-[5-[1-(tetrahydrofuran-2-ylmethyl)pyrazol-4-yl]benzimidazol-1-yl]-N-(2,2,2-trifluoroethyl)benzamide]	0.01 to 10 nM	0.01 to 10 nM	0.01 to 10 nM
COc1cc(-n2cnc3cc(-c4cnn(C)c4)ccc32)cc(OC)c1C(=O)NCC(C)C [compound 113, N-isobutyl-2,6-dimethoxy-4-[5-(1-methylpyrazol-4-yl)benzimidazol-1-yl]benzamide]	10 to 100 nM	10 to 100 nM	10 to 100 nM
CCC(C)NC(=O)c1c(OC)cc(-n2cnc3cc(-c4cnn(C)c4)ccc32)cc1OC (stereo not drawn) [compound 114, 2,6-dimethoxy-4-[5-(1-methylpyrazol-4-yl)benzimidazol-1-yl]-N-sec-butyl-benzamide]	100 to 500 nM	100 to 500 nM	100 to 500 nM
COc1cc(-n2cnc3cc(-c4cnn(C)c4)ccc32)cc(OC)c1C(=O)NC(C)C [compound 115, N-isopropyl-2,6-dimethoxy-4-[5-(1-methylpyrazol-4-yl)benzimidazol-1-yl]benzamide]	10 to 100 nM	10 to 100 nM	10 to 100 nM
COc1cc(-n2cnc3cc(-c4cnnc(C)c4)ccc32)cc(OC)c1C(=O)NCC(F)(F)F [compound 121, 2,6-dimethoxy-4-[5-(6-methylpyridazin-4-yl)benzimidazol-1-yl]-N-(2,2,2-trifluoroethyl)benzamide]	> 500 nM	100 to 500 nM	10 to 100 nM
COc1cc(-n2cnc3cc(-c4cnccn4)ccc32)cc(OC)c1C(=O)NCC(F)(F)F [compound 128, 2,6-dimethoxy-4-(5-pyrazin-2-ylbenzimidazol-1-yl)-N-(2,2,2-trifluoroethyl)benzamide]	> 500 nM	> 500 nM	100 to 500 nM
COc1cc(-c2cnc3cc(-c4cnn(C)c4)ccn23)cc(OC)c1C(=O)NC1CS(=O)(=O)C1 [compound 130, N-(1,1-dioxothietan-3-yl)-2.6-dimethoxy-4-[7-(l-methylpyrazol-4-yl)imidazo[1,2-a]pyridin-3-yl]benzamide]	10 to 100 nM	0.01 to 10 nM	10 to 100 nM
COCCN(C)C(=O)c1c(OC)cc(-c2cnc3cc(-c4cnn(C)c4)ccn23)cc1OC [compound 131, 2,6-dimethoxy-N-(2-methoxyethyl)-N-methyl-4-[7-(1-methylpyrazol-4-yl)imidazo[1,2-a]pyridin-3-yl]benzamide]	> 500 nM	100 to 500 nM	100 to 500 nM
COc1cc(-n2cnc3cc(-c4nccn4C)ccc32)cc(OC)c1C(=O)NCC(F)(F)F [compound 134, 2,6-dimethoxy-4-[5-(1-methylimidazol-2-yl)benzimidazol-1-yl]-N-(2,2,2-trifluoroethyl)benzamide]	> 500 nM	10 to 100 nM	100 to 500 nM
COc1cc(-n2cnc3cc(-c4cncn4C)ccc32)cc(OC)c1C(=O)NCC(F)(F)F [compound 135, 2,6-dimethoxy-4-[5-(3-methylimidazol-4-yl)benzimidazol-1-yl]-N-(2,2,2-trifluoroethyl)benzamide]	> 500 nM	100 to 500 nM	100 to 500 nM
CCNC(=O)c1c(OC)cc(-n2cnc3cc(-c4noc(C)n4)ccc32)cc1OC(F)F [compound 136, 2-(difluoromethoxy)-N-ethyl-6-methoxy-4-[5-(5-methyl-l,2,4-oxadiazol-3-yl)benzimidazol-1-yl]benzamide]	> 500 nM	> 500 nM	> 500 nM
COc1cc(-n2cnc3cc(-c4cnc(C)n4C)ccc32)cc(OC)c1C(=O)NCC(F)(F)F [compound 138, 4-[5-(2,3-dimethylimidazol-4-yl)benzimidazol-1-yl]-2,6-dimethoxy-N-(2,2,2-trifluoroethyl)benzamide]	> 500 nM	100 to 500 nM	100 to 500 nM
COc1cc(-n2cnc3cc(-c4cnn(C)c4)ccc32)cc(OC)c1C(=O)N[C@@H]1CCC[C@H]1O [compound 143, N-[(1R,2R)-2-hydroxycyclopentyl]-2,6-dimethoxy-4-[5-(1-methylpyrazol-4-yl)benzimidazol-1-yl]benzamide]	100 to 500 nM	10 to 100 nM	10 to 100 nM
CCNC(=O)c1c(OC)cc(-n2cnc3cc(-c4nnc(C)[nH]4)ccc32)cc1OC(F)F [compound 150, 2-(difluoromethoxy)-N-ethyl-6-methoxy-4-[5-(5-methyl-4H-1,2,4-triazol-3-yl)benzimidazol-1-yl]benzamide]	> 500 nM	> 500 nM	> 500 nM
COc1cc(-n2cnc3cc(-c4c[nH]cn4)ccc32)cc(OC)c1C(=O)NCC(F)(F)F [compound 153, 4-[5-(1H-imidazol-4-yl)benzimidazol-1-yl]-2,6-dimethoxy-N-(2,2,2-trifluoroethyl)benzamide]	10 to 100 nM	10 to 100 nM	10 to 100 nM
COc1cc(-n2cnc3cc(-c4cnn(C)c4)ccc32)cc(OC)c1C(=O)NC1CCCCC1OC (stereo not drawn) [compound 161, 2,6-dimethoxy-N-(2-methoxycyclohexyl)-4-[5-(1-methylpyrazol-4-yl)benzimidazol-1-yl]benzamide]	> 500 nM	> 500 nM	> 500 nM
